Read-outs that look alike come from different tables or passages of the source.
Assays:
B16F10 cells = assay: Proliferation assay B16F10; format: cell-based, mouse; details: 4 days, crystal violet, read-out: Inhibition of B16F10 cell proliferation IC50
Method: Cultivated tumour cells (HeLa, human cervical tumour cells, ATCC CCL-2; NCI-H460, human non-small cell lung carcinoma cells, ATCC HTB-177; A2780, human ovarian carcinoma cells, ECACC #93112519; DU 145, hormone-independent human prostate carcinoma cells, ATCC HTB-81; HeLa-MaTu-ADR, multidrug-resistant human cervical carcinoma cells, EPO-GmbH Berlin; Caco-2, human colorectal carcinoma cells, ATCC HTB-37; B16F10, mouse melanoma cells, ATCC CRL-6475) were plated at a density of 5,000 cells/well (DU145, HeLa-MaTu-ADR), 3,000 cells/well (NCI-H460, HeLa), 2,500 cells/well (A2780), 1,500 cells/well (Caco-2), or 1,000 cells/well (B16F10) in a 96-well multititer plate in 200 μL of their respective growth medium supplemented 10% fetal calf serum. After 24 hours, the cells of one plate (zero-point plate) were stained with crystal violet (see below), while the medium of the other plates was replaced by fresh culture medium (200 μl), to which the test substances were added in various concentrations (0 μM, as well as in the range of 0.001-10 μM). The cells were incubated for 4 days in the presence of test substances. Cell proliferation was determined by staining the cells with crystal violet: the cells were fixed by adding 20 μl/measuring point of an 11% glutaric aldehyde solution for 15 minutes at room temperature. After three washing cycles of the fixed cells with water, the plates were dried at room temperature. The cells were stained by adding 100 μl/measuring point of a 0.1% crystal violet solution (pH 3.0). After three washing cycles of the stained cells with water, the plates were dried at room temperature. The dye was dissolved by adding 100 μl/measuring point of a 10% acetic acid solution. The extinction was determined by photometry at a wavelength of 595 nm. The change of cell number, in percent, was calculated by normalization of the measured values to the extinction values of the zero-point plate (=0%) and the extinction of the untreated (0 μm) cells (=100%). The IC50 values (inhibitory concentration at 50% of maximal effect) were determined by means of a 4 parameter fit. Non-adherent MOLM-13 human acute myeloid leukemia cells (DSMZ ACC 554) were seeded at a density of 5,000 cells/well in a 96-well multititer plate in 100 μL of growth medium supplemented 10% fetal calf serum. After 24 hours, cell viability of one plate (zero-point plate) was determined with the Cell Titre-Glo Luminescent Cell Viability Assay (Promega), while 50 μL of test compound containing medium was added to the wells of the other plates (final concentrations in the range of 0.001-1 μM and DMSO controls). Cell viability was assessed after 72-hour exposure with the Cell Titre-Glo Luminescent Cell Viability Assay (Promega). IC50 values (inhibitory concentration at 50% of maximal effect) were determined by means of a 4 parameter fit on measurement data which were normalized to vehicle (DMSO) treated cells (=100%) and measurement readings taken immediately before compound exposure (=0%).

[1] = target: T1, human PTEFb (CDK9/Cyclin T1) (Homo sapiens, UniProt P50750); assay: Surface plasmon resonance PTEFb; format: binding; details: SPR; for koff: read-out: Dissociation rate constant koff; for Target resident time: 1/koff
T1 construct: purchased ProQinase, Freiburg, Germany
T1 sequence (P50750 whole entry): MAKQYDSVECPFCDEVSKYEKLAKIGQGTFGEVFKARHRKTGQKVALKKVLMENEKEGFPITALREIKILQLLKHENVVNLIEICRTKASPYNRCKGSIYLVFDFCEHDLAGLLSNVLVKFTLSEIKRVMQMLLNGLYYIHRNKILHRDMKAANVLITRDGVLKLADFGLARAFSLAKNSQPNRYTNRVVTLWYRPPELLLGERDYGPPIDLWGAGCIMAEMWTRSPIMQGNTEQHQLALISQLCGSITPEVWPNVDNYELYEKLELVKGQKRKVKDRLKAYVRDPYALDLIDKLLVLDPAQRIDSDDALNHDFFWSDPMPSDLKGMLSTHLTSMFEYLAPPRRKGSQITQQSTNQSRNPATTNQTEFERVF
T1 sequence (O60563 whole entry partner): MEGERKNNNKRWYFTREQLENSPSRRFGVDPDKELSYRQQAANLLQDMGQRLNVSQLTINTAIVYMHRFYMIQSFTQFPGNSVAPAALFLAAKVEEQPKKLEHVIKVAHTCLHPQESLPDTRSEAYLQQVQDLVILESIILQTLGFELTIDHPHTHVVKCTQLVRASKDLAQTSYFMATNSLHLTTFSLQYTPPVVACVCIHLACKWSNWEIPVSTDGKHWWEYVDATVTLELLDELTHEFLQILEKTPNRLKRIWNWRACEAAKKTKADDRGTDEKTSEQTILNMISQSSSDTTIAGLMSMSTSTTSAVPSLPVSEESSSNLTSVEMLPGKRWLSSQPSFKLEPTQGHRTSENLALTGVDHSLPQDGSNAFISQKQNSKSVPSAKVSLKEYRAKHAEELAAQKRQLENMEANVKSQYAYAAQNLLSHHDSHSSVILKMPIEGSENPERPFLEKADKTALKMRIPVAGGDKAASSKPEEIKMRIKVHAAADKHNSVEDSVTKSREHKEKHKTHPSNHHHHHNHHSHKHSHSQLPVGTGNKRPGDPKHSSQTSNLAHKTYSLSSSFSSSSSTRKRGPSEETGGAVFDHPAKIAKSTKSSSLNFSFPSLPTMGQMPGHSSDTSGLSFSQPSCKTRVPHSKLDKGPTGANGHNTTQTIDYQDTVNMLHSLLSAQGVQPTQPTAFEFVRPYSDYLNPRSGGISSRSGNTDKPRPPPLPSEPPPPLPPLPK
From the text: 8. Surface Plasmon Resonance PTEFb
The term “surface plasmon resonance”, as used herein, refers to an optical phenomenon that allows for the analysis of the reversible associations of biological molecules in real time within a biosensor matrix, for example using the Biacore® system (GE Healthcare Biosciences, Uppsala, Sweden). Biacore® uses the optical properties of surface plasmon resonance (SPR) to detect alterations in the refractive index of a buffer, which changes as molecules in solution interact with the target immobilized on the surface. In brief, proteins are covalently bound to the dextran matrix at a known concentration and a ligand for the protein is injected through the dextran matrix. Near infrared light, directed onto the opposite side of the sensor chip surface is reflected and also induces an evanescent wave in the gold film, which in turn, causes an intensity dip in the reflected light at a particular angle known as the resonance angle. If the refractive index of the sensor chip surface is altered (e.g. by compound binding to the bound protein) a shift occurs in the resonance angle. This angle shift can be measured.
The term “KD”, as used herein, is intended to refer to the equilibrium dissociation constant of a particular compound/target protein complex.
The term “koff”, as used herein, is intended to refer to the off-rate, i.e. the dissociation rate constant of a particular compound/target protein complex.
The term “target residence time”, as used herein, is intended to refer to the inverse of the rate of dissociation rate constant (1/koff) of a particular compound/target protein complex.
The ability of the compounds according to the invention to bind human PTEFb may be determined using surface plasmon resonance (SPR). KD values and koff values may be measured using a Biacore® T200 instrument (GE Healthcare, Uppsala, Sweden).
For SPR measurements, recombinant human PTEFb (CDK9/Cyclin T1 recombinant human active protein kinase purchased from ProQinase, Freiburg, Germany) is immobilized using standard amine coupling (Johnsson B et al, Anal Biochem. 1991 Nov. 1; 198(2):268-77). Briefly, carboxymethylated dextran biosensor chips (CM7, GE Healthcare) are activated with N-ethyl-N′-(3-dimethylaminopropyl)-carbodiimide hydrochloride (EDC) and N-hydroxysuccinimide (NHS) according to the supplier's instructions. Human PTEFb is diluted in 1×HBS-EP+(GE Healthcare) into 30 μg/ml and injected on the activated chip surface. Subsequently, a 1:1 solution of 1 M ethanolamine-HCl (GE Healthcare) and 1×HBS-EP is injected to block unreacted groups, resulting in approximately 4000 response units (RU) of immobilized protein. A reference surface is generated by treatment with NHS-EDC and ethanolamine-HCl. Compounds are dissolved in 100% dimethylsulfoxide (DMSO, Sigma-Aldrich, Germany) to a concentration of 10 mM and subsequently diluted in running buffer (1×HBS-EP+pH 7.4 [generated from HBS-EP+Buffer 10× (GE Healthcare): 0.1 M HEPES, 1.5 M NaCl, 30 mM EDTA and 0.5% v/v Surfactant P20], 1% v/v DMSO). For kinetic measurements, four-fold serial dilutions of compound (0.39 nM to 100 nM) are injected over immobilized protein. Binding kinetics is measured at 25° C. with a flow rate of 50 μl/min in running buffer. Compound concentrations are injected for 60 s followed by a dissociation time of 1800 s. The resulting sensorgrams are double-referenced against the reference surface as well as against blank injections.
The double-referenced sensorgrams are fit to a simple reversible Langmuir 1:1 reaction mechanism as implemented in the Biacore® T200 evaluation software 2.0 (GE Healthcare). In cases were full compound dissociation has not occurred at the end of the dissociation phase, the Rmax parameter (response at saturation) is fit as local variable. In all other cases, Rmax is fit as global variable.

[2] = 25° C., below 5E-5 s^-1 not resolvable

SMILES	IC50 (B16F10 cells; Mus musculus, B16-F10, 96 h) [nM]	koff [1, 2] [s⁻¹]	Target resident time [1] [min]	IC50 (B16F10 cells) [nM]	Dissociation rate constant koff [1, 2] [s⁻¹]
C[S+]([O-])Cc1cc2nc(c1)OCCCCOc1cc(F)ccc1-c1cc(ncc1F)N2 (racemic) [Example 13, (rac)-16,20-difluoro-9-[(methylsulfinyl)methyl]-2,3,4,5-tetrahydro-12H-11,7-(azeno)-13,17-(metheno)-1,6,12,14-benzodioxadiazacyclononadecine]	30	< 5e-05	>333		
C[S+]([O-])Cc1cc2nc(c1)OCCOc1cc(F)ccc1-c1cc(ncc1F)N2 (racemic) [Example 10, (rac)-14,18-difluoro-7-[(methylsulfinyl)methyl]-2,3-dihydro-10H-9,5-(azeno)-11,15-(metheno)-1,4,10,12-benzodioxadiazacycloheptadecine]	410	0.00245	6.8		
CS(=N)(=O)Cc1cc2nc(c1)OCCCOc1cc(F)ccc1-c1cc(ncc1F)N2 (single isomer, unassigned; enantiomer 2) [Example 7, 15,19-Difluoro-8-[(S-methylsulfonimidoyl)methyl]-3,4-dihydro-2H,11H-10,6-(azeno)-12,16-(metheno)-1,5,11,13-benzodioxadiazacyclooctadecine; Enantiomer 2]			>333	7	< 5e-05
CS(=N)(=O)Cc1cc2nc(c1)OCCOc1cc(F)ccc1-c1cc(ncc1F)N2 (racemic) [Example 11, (rac)-14,18-difluoro-7-[(S-methylsulfonimidoyl)methyl]-2,3-dihydro-10H-9,5-(azeno)-11,15-(metheno)-1,4,10,12-benzodioxadiazacycloheptadecine]	200	0.0029	5.7		
CSCc1cc2nc(c1)OCCOc1cc(F)ccc1-c1cc(ncc1F)N2 [Example 9, 14,18-Difluoro-7-[(methylsulfanyl)methyl]-2,3-dihydro-10H-9,5-(azeno)-11,15-(metheno)-1,4,10,12-benzodioxadiazacycloheptadecine]		0.00024	69.4		
CSCc1cc2cc(c1)OCCCOc1cc(F)ccc1-c1nc(ncc1F)N2 [Example 2, 15,19-Difluoro-8-[(methylsulfanyl)methyl]-3,4-dihydro-2H,11H-12,16-(azeno)-10,6-(metheno)-1,5,11,13-benzodioxadiazacyclooctadecine]	167				

Continued by falling IC50 (B16F10 cells; Mus musculus, B16-F10, 96 h), values first:

IC50 (B16F10 cells; Mus musculus, B16-F10, 96 h) [nM]	koff [1, 2] [s⁻¹]	Target resident time [1] [min]	IC50 (B16F10 cells) [nM]	Dissociation rate constant koff [1, 2] [s⁻¹]	SMILES
23	< 5e-05	>333			CS(=N)(=O)Cc1cc2cc(c1)OCCCOc1cc(F)ccc1-c1nc(ncc1F)N2 (racemic) [Example 15, (rac)-15,19-difluoro-8-[(S-methylsulfonimidoyl)methyl]-3,4-dihydro-2H,11H-12,16-(azeno)-10,6-(metheno)-1,5,11,13-benzodioxadiazacyclooctadecine]
22	< 5e-05	>333			CS(=N)(=O)Cc1cc2nc(c1)OCCCCOc1cc(F)ccc1-c1cc(ncc1F)N2 (racemic) [Example 14, (rac)-16,20-difluoro-9-[(S-methylsulfonimidoyl)methyl]-2,3,4,5-tetrahydro-12H-11,7-(azeno)-13,17-(metheno)-1,6,12,14-benzodioxadiazacyclononadecine]
18	< 5e-05	>333			CS(=O)(Cc1cc2cc(c1)OCCCOc1cc(F)ccc1-c1nc(ncc1F)N2)=NC(=O)C(F)(F)F (racemic) [Example 16, (rac)-N-[{[15,19-difluoro-3,4-dihydro-2H,11H-12,16-(azeno)-10,6-(metheno)-1,5,11,13-benzodioxadiazacyclooctadecin-8-yl]methyl}(methyl)oxido-λ^6-sulfanylidene]-2,2,2-trifluoroacetamide]
14	< 5e-05	>333			C[S+]([O-])Cc1cc2nc(c1)OCCCOc1cc(F)ccc1-c1cc(ncc1F)N2 (racemic) [Example 4, (rac)-15,19-Difluoro-8-[(methylsulfinyl)methyl]-3,4-dihydro-2H,11H-10,6-(azeno)-12,16-(metheno)-1,5,11,13-benzodioxadiazacyclooctadecine]
14	< 5e-05	>333			CS(=N)(=O)Cc1cc2cc(c1)OCCCCOc1cc(F)ccc1-c1nc(ncc1F)N2 (racemic) [Example 1, (rac)-16,20-Difluoro-9-[(S-methylsulfonimidoyl)methyl]-2,3,4,5-tetrahydro-12H-13,17-(azeno)-11,7-(metheno)-1,6,12,14-benzodioxadiazacyclononadecine]
9	< 5e-05	>333			CS(=O)(=O)Cc1cc2nc(c1)OCCCOc1cc(F)ccc1-c1cc(ncc1F)N2 [Example 8, 15,19-difluoro-8-[(methylsulfonyl)methyl]-3,4-dihydro-2H,11H-10,6-(azeno)-12,16-(metheno)-1,5,11,13-benzodioxadiazacyclooctadecine]
4	9.3e-05	179.2			CS(=N)(=O)Cc1cc2nc(c1)OCCCOc1cc(F)ccc1-c1cc(ncc1F)N2 (racemic) [Example 5, (rac)-15,19-Difluoro-8-[(S-methylsulfonimidoyl)methyl]-3,4-dihydro-2H,11H-10,6-(azeno)-12,16-(metheno)-1,5,11,13-benzodioxadiazacyclooctadecine]

Reference: US9963464B2, “Macrocyclic compounds” (Bayer Pharma Aktiengesellschaft, priority 2014, dated 2018)
